Results from the supplement of paper PMC11061612.

What was measured:
[1] = system: HEC-1 (Endometrial Carcinoma); experiment: Bliss excess, mean over the matrix (fraction); higher = more synergy
Procedure, shortened: (§1)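 Cell lines grown in DMEM/F12 or RPMI with 10% FBS were plated in 1536-well plates and held 24 hours at 37°C, 5% CO2 before 72 hours of exposure to two-drug dose matrices, with DMSO typically at 0.2%. CellTiter-Glo 2.0 luminescence gave viability, which was converted to inhibition. Vehicle wells were set to 0 and blank wells to 1. Combination Emax is the second-highest inhibition in the matrix, and Bliss excess is the observed combination effect minus the expected EA + EB − EA·EB, where EA and EB are the single-agent effects.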

[2] = system: VAL (B-Cell Non-Hodgkin's Lymphoma); experiment: as above
Procedure, shortened: as §1

[3] = system: OVMIU (Ovarian Carcinoma); experiment: as above
Procedure, shortened: as §1

[4] = system: GB-1 (Glioblastoma); experiment: combination Emax (second highest fraction inhibited in the dose matrix, 72 h); higher = more inhibition; extreme values may be limits of the assay
Procedure, shortened: as §1

[5] = system: OAW-42 (Ovarian Carcinoma); experiment: as above
Procedure, shortened: as §1

[6] = system: LB996-RCC (Kidney Carcinoma); experiment: as above
Procedure, shortened: as §1

[7] = system: OPM-2 (Plasma Cell Myeloma); experiment: as above
Procedure, shortened: as §1

[8] = system: SU-DHL-10 (B-Cell Non-Hodgkin's Lymphoma); experiment: as above
Procedure, shortened: as §1

[9] = system: LN-229 (Glioblastoma); experiment: as above
Procedure, shortened: as §1

[10] = system: NCI-H446 (Small Cell Lung Carcinoma); experiment: as above
Procedure, shortened: as §1

[11] = system: SHP-77 (Small Cell Lung Carcinoma); experiment: as above
Procedure, shortened: as §1

[12] = system: TE-8 (Esophageal Squamous Cell Carcinoma); experiment: as above
Procedure, shortened: as §1

[13] = system: CAL-62 (Thyroid Gland Carcinoma); experiment: as above
Procedure, shortened: as §1

[14] = system: LXF-289 (Lung Adenocarcinoma); experiment: as above
Procedure, shortened: as §1

[15] = system: PANC-03-27 (Pancreatic Carcinoma); experiment: as above
Procedure, shortened: as §1

[16] = system: A2058 (Melanoma); experiment: as above
Procedure, shortened: as §1

[17] = system: WM278 (Melanoma); experiment: as above
Procedure, shortened: as §1

[18] = system: RKN (Other Solid Carcinomas); experiment: as above
Procedure, shortened: as §1

[19] = system: OVMIU (Ovarian Carcinoma); experiment: as above
Procedure, shortened: as §1

[20] = system: SK-PN-DW (Other Solid Carcinomas); experiment: as above
Procedure, shortened: as §1
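Throughout, for Bliss excess, mean over the matrix: after 72 h of two-drug dosing.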

SMILES	Bliss excess [1]	Bliss excess [2]	Bliss excess [3]	combination Emax [4]	combination Emax [5]	combination Emax [6]	combination Emax [7]	combination Emax [8]	combination Emax [9]	combination Emax [10]	combination Emax [11]	combination Emax [12]	combination Emax [13]	combination Emax [14]	combination Emax [15]	combination Emax [16]	combination Emax [17]	combination Emax [18]	combination Emax [19]	combination Emax [20]
NC1(C(=O)N[C@@H](CCO)c2ccc(Cl)cc2)CCN(c2ncnc3[nH]ccc23)CC1 [Capivasertib] + CCN(CCO)CCCOc1ccc2c(Nc3cc(CC(=O)Nc4cccc(F)c4)[nH]n3)ncnc2c1 [AZD2811] (first compound max 10 µM, 7x7, partner max 1 µM)	0.016	-0.162	-0.0385	0.342	0.48	0.71	0.981	1	0.211	0.958	0.271	0.6	0.308	0.679	0.318	0.798	0.431	0.254	0.381	0.83
CC1(C)CCC(CN2CCN(c3ccc(C(=O)NS(=O)(=O)c4ccc(NCC5CCOCC5)c([N+](=O)[O-])c4)c(Oc4cnc5[nH]ccc5c4)c3)CC2)=C(c2ccc(Cl)cc2)C1 [Venetoclax] + CN(C)CCCOc1ccc(-c2ccc3ncc4c(c3c2)n(C2CCOCC2)c(=O)n4C)cn1 [AZD0156] (first compound max 1 µM, 7x7, partner max 1 µM)	0.0064	0.0308	-0.111	0.115	0.204	0.222	0.574	0.137	0.212	0.304	0.424	0.519	0.465	0.245	0.684	0.226	0.211	0.107	0.345	0.825
C[C@@H](c1ccc2nccn2c1)n1nnc2ncc(-c3cnn(C)c3)nc21 [Savolitinib] + Cc1c2c(nn1C)CSCc1cc(n(C)n1)CSc1cc(c3ccccc3c1)OCCCc1c(C(=O)O)n(C)c3c-2c(Cl)ccc13 [AZD5991] (first compound max 1 µM, 7x7, partner max 1 µM)	-0.0541	-0.0491	-0.0415	0.117	0.21	0.125	1	1	0.221	0.597	0.34	0.323	0.131	0.306	0.0558	0.36	0.15	0.117	0.114	0.766
COc1nnc2ccc(N3CCC(c4ccc(OCCN5CCN(C)C(=O)[C@H]5C)cc4)CC3)nn12 [AZD5153] + C[C@@H]1COCCN1C2=NC(=NC(=C2)C3(CC3)[S@](=N)(=O)C)C4=C5C=CNC5=NC=C4 [AZD6738] (first compound max 1 µM, 7x7, partner max 10 µM)	0.0625	-0.111	-0.0208	0.678	0.702	0.731	1	1	0.575	0.951	0.821	0.617	0.895	0.862	0.489	0.908	0.671	0.562	0.795	0.868
CC1(C)CCC(CN2CCN(c3ccc(C(=O)NS(=O)(=O)c4ccc(NCC5CCOCC5)c([N+](=O)[O-])c4)c(Oc4cnc5[nH]ccc5c4)c3)CC2)=C(c2ccc(Cl)cc2)C1 [Venetoclax] + Cc1cc2ncnn2cc1Nc1ncc2c(n1)n(C1CCOCC1)c(=O)n2C [AZD7648] (first compound max 1 µM, 7x7, partner max 10 µM)	-0.0286	0.012	-0.109	0.135	0.425	0.373	0.642	0.249	0.115	0.403	0.34	0.401	0.366	0.163	0.584	0.203	0.269	0.157	0.374	0.856
CN(CCO)CC[C@H](CSc1ccccc1)Nc1ccc(S(=O)(=O)NC(=O)c2ccc(N3CCC([C@@H](O)c4ccccc4-c4ccc(Cl)cc4)CC3)cc2)cc1S(=O)(=O)C(F)(F)F [AZD4320] + Cc1cc2ncnn2cc1Nc1ncc2c(n1)n(C1CCOCC1)c(=O)n2C [AZD7648] (first compound max 1 µM, 7x7, partner max 10 µM)	-0.0402	0.0316	-0.0652	0.17	0.348	0.321	0.71	0.474	0.0793	0.699	0.491	0.193	0.26	0.216	0.177	0.0867	0.555	0.135	0.847	0.413
CC1(C)CCC(CN2CCN(c3ccc(C(=O)NS(=O)(=O)c4ccc(NCC5CCOCC5)c([N+](=O)[O-])c4)c(Oc4cnc5[nH]ccc5c4)c3)CC2)=C(c2ccc(Cl)cc2)C1 [Venetoclax] + Cn1cnc2c(F)c(Nc3ccc(Br)cc3Cl)c(C(=O)NOCCO)cc21 [Selumetinib] (first compound max 1 µM, 7x7, partner max 3 µM)	-0.0315	-0.0069	-0.0641	0.0816	0.147	0.156	0.385	0.072	0.3	0.198	0.455	0.457	0.256	0.183	0.684	0.493	0.633	0.291	0.479	0.806
Cc1c2c(nn1C)CSCc1cc(n(C)n1)CSc1cc(c3ccccc3c1)OCCCc1c(C(=O)O)n(C)c3c-2c(Cl)ccc13 [AZD5991] + C[C@@H]1COCCN1C2=NC(=NC(=C2)C3(CC3)[S@](=N)(=O)C)C4=C5C=CNC5=NC=C4 [AZD6738] (first compound max 1 µM, 7x7, partner max 10 µM)	0.0258	-0.0898	-0.0037	0.489	0.644	0.752	1	1	0.777	0.948	0.594	0.751	0.806	0.776	0.819	0.925	0.562	0.215	0.483	0.947
COc1nnc2ccc(N3CCC(c4ccc(OCCN5CCN(C)C(=O)[C@H]5C)cc4)CC3)nn12 [AZD5153] + Cn1cnc2c(F)c(Nc3ccc(Br)cc3Cl)c(C(=O)NOCCO)cc21 [Selumetinib] (first compound max 1 µM, 7x7, partner max 10 µM)	-0.0115	-0.0157	-0.0452	0.288	0.426	0.482	1	1	0.511	0.91	0.424	0.575	0.844	0.646	0.398	0.842	0.799	0.577	0.737	0.559
Cc1c2c(nn1C)CSCc1cc(n(C)n1)CSc1cc(c3ccccc3c1)OCCCc1c(C(=O)O)n(C)c3c-2c(Cl)ccc13 [AZD5991] + CCN(CCO)CCCOc1ccc2c(Nc3cc(CC(=O)Nc4cccc(F)c4)[nH]n3)ncnc2c1 [AZD2811] (first compound max 1 µM, 7x7, partner max 1 µM)	0.0547	-0.0541	-0.099	0.264	0.288	0.405	1	1	0.522	0.926	0.289	0.529	0.237	0.864	0.517	0.919	0.396	0.185	0.283	0.985
C[C@@H](c1ccc2nccn2c1)n1nnc2ncc(-c3cnn(C)c3)nc21 [Savolitinib] + CC1(C)CCC(CN2CCN(c3ccc(C(=O)NS(=O)(=O)c4ccc(NCC5CCOCC5)c([N+](=O)[O-])c4)c(Oc4cnc5[nH]ccc5c4)c3)CC2)=C(c2ccc(Cl)cc2)C1 [Venetoclax] (first compound max 1 µM, 7x7, partner max 1 µM)	-0.0423	-0.0305	-0.0569	0.109	0.188	0.0725	0.246	0.0782	0.0841	0.277	0.314	0.229	0.142	0.16	0.167	0.107	0.102	0.195	0.284	0.221
CN(CCO)CC[C@H](CSc1ccccc1)Nc1ccc(S(=O)(=O)NC(=O)c2ccc(N3CCC([C@@H](O)c4ccccc4-c4ccc(Cl)cc4)CC3)cc2)cc1S(=O)(=O)C(F)(F)F [AZD4320] + C[C@@H](Nc1cc(F)cc(F)c1)c1cc(C(=O)N(C)C)cc2c(=O)cc(N3CCOCC3)oc12 [AZD8186] (first compound max 1 µM, 7x7, partner max 3 µM)	0.0133	0.0137	-0.0637	0.548	0.414	0.654	0.589	0.81	0.389	0.811	0.53	0.463	0.925	0.348	0.564	0.765	0.85	0.314	0.534	0.757
